{"source": "patent US10800811B2", "about": "“Pharmacologically active peptide compound, process for the preparation and use thereof” (Dipartimento di Scienze Biomediche e Biotecnologiche, priority 2016, dated 2020)", "key": {"ALS patients": {"test_system": "ALS patients", "details": "background statement, cited from earlier work"}, "ALS model mice": {"test_system": "ALS model mice", "details": "background statement; cited from earlier work"}, "NSC34-SOD1-G93A cell": {"test_system": "NSC34-SOD1-G93A cell", "type": "cell-based, mice", "protocol": "The action of the said NHK1 peptide upon the complex VDAC1/SOD1-G93A, i.e. the complex formed by the interaction between protein VDAC1 and the mutant enzyme SOD1 (exactly the mutant G93A, where the glycine 93 was replaced by alanine) was evaluated by in vitro and in cellulo experiments, i.e. in the NSC34 cell line. NSC34 is a hybrid cell line obtained by fusing mice motor neurons with neuroblastoma cells. The NSC34 cell line is widely recognized as cell model of motor neurons and, following its transfection with mutated SOD1, it is considered a reference model of ALS [Cashman N R et al. Neuroblastoma×spinal cord (NSC) hybrid cell lines resemble developing motor neurons. Dev. Dyn. […]\nThe MTT assay is a colorimetric assay aimed to quantify the activity of dehydrogenase enzymes reducing 3-(4,5-dimethyltiazol-2-yl)-2,5-diphenyltetrazolium, yellow, to purple-blue formazan [Mosmann T., Rapid colorimetric assay for cellular growth and survival: application to proliferation and cytotoxicity assays. […]\nCells were seeded on 24-wells plates at a density of 80,000 cells/well, incubated for 24 hours and then transiently transfected with plasmid pEGFP-N1 expressing SOD1WT or SOD1-G93A or a mock. […] The MTT assay was read after 24 hours incubation. […]\nThe same vitality assay was repeated in the presence of the NHK1 peptide. […] The MTT assay was read after 24 hours incubation. […]"}}, "note": "Structures can show the parent of a compound that is named as a salt. No end group written: not given here."}
{"compound": "Cc1ccc(NC(=O)c2ccc(CN3CCN(C)CC3)cc2)cc1Nc1nc(-c2cccnc2)cs1", "note": "[Masitinib]", "values": [{"measurement": "Efficacy in ALS", "setting": "ALS patients", "result": "inefficacy in ALS"}]}
{"compound": "O=S(=O)(c1cccc2cnccc12)N1CCCNCC1", "note": "[Fasudil hydrochloride]", "values": [{"measurement": "Efficacy in ALS", "setting": "ALS patients", "result": "inefficacy in ALS"}]}
{"compound": "CCCN[C@@H]1CCc2nc(N)sc2C1", "note": "[Dexpramipexole]", "values": [{"measurement": "Efficacy in ALS", "setting": "ALS patients", "result": "lacks any efficacy in ALS patients"}]}
{"compound": "Nc1nc2ccc(OC(F)(F)F)cc2s1", "note": "[Riluzole]", "values": [{"measurement": "Extension of life expectation", "setting": "ALS patients; ALS, statistical analysis", "result": "about three months"}]}
{"compound": "O=C([O-])[O-].[Li+].[Li+]", "note": "[Lithium carbonate]", "values": [{"measurement": "Efficacy in ALS", "setting": "ALS patients", "result": "no influence on disease progression and survival"}]}
{"compound": "C#Cc1cnc2nc(O)n(C(CC)CC)c2n1", "note": "[Tirasemvit]", "values": [{"measurement": "Improvement of skeletal muscle strength", "setting": "ALS model mice", "result": "did not confirm such ability"}]}
{"compound": "IAAQLLAYYFT [NHK1, Isoleucine-Alanine-Alanine-Glutamine-Leucine-Leucine-Alanine-Tyrosine-Tyrosine-Phenylalanine-Threonine]", "values": [{"measurement": "Toxicity for the cell", "setting": "NSC34-SOD1-G93A cell", "result": "not toxic at all"}]}
{"compound": "CCCCCCCCc1ccc(CCC(N)(CO)CO)cc1", "note": "[Fingolimid]", "values": [{"measurement": "Efficacy in ALS", "setting": "ALS patients", "result": "does not show any activity in ALS"}]}
